In assay [1] the test system is N87 cells. Put plainly: Cellular proliferation in N87 cells (CellTiter Glo). The assay is classed as cell-based, human. Particulars: 72 h. As to the method:
(§1) In addition to the engineered cell lines, the following cell lines were used: BT474 (human breast carcinoma), N87 (human gastric carcinoma), NCI-H1781 (human lung adenocarcinoma), and A431 (human epidermoid carcinoma); all cell lines were obtained from the American Type Culture Collection (ATCC, Manassas, VA). NCI-H1781 were grown in complete RPMI 1640 (Life Technologies, Carlsbad, CA) supplemented with 15% fetal bovine serum (FBS, Life Technologies, Carlsbad, CA) and 1% Penicillin-Streptomycin (P/S, Life Technologies, Carlsbad, CA). N87 cells were grown in complete RPMI 1640 supplemented with 10% FBS and 1% P/S. BT474 and A431 cells were grown in DMEM (Life Technologies, Carlsbad, CA) supplemented with 10% FBS and 1% P/S. All cells were maintained and propagated in a humidified 5% CO2 incubator at 37° C.
(§2) Cell proliferation in adherent cells was investigated in two HER2 amplified cell lines (BT474, N87), and a HER2VC expressing cell line (NCI-H1781). BT474, NCI-H1781, and N87 were plated in their appropriate growth media supplemented with either 10% FBS (BT474, N87) or 15% FBS (NCI-H1781) and 1% P/S in 96-well white clear-bottom tissue culture plates (Costar, Sigma-Aldrich). The starting cell densities were 3500, 5500, and 5000 cells for BT474, NCI-H1781, and N87 cells, respectively. An 8-point standard curve with varying cell densities (starting at 50000 cells and serially diluting down 2-fold) was prepared for each cell line and read 6 h after plating. Cells were allowed to attach overnight prior to compound treatment. Compound solutions were prepared by serially diluting test compounds in DMSO (Sigma-Aldrich), then diluting 500× in their corresponding serum free media. Cells were treated by adding a 1:1 volume of test compound to a final concentration of […], 0.004, 0.0014, or 0.0005 μM, in 0.1% DMSO and 5% FBS (for BT474 and N87) or 7.5% FBS (NCI-H1781). In BT474 and NCI-H1781, cell media was replaced and cells were redosed with fresh test compound solutions after 72 h. Viability was determined by CellTiter Glo (Promega, Madison, WI) after 72 h for N87 cells, and after 120 h for BT474 and […] cells. The results were converted to cell numbers using a standard curve; growth inhibition (GI50 values) were determined by Graph Pad Prism. […] The results are provided in Table 4, under columns titled “BT474-GI50”, “N87-GI50”, and “NCI-H1781-GI50”.

The subject of assay [2] is BT474 cells. Put plainly: Cellular proliferation in BT474 cells (CellTiter Glo). The assay is classed as cell-based, human. Particulars: 120 h, redosed after 72 h. As to the method:
as §1, §2

For assay [3], the target named is T1, HER2VC (G776delinsVC) (Homo sapiens, UniProt P04626, G776C/INS775V).
T1 construct: NCI-H1781 cells which endogenously expresses a HER2 mutant protein; endogenous in cells; host or cells: NCI-H1781
Description: HER2 signaling (pHER2) in NCI-H1781 cells. The assay is classed as cell-based. Particulars: 1.5 hr compound, 1% FBS. As to the method:
as §1
(§3) HER2 signaling was assessed in BT474 and N87 cell lines which endogenously overexpress the HER2 wildtype (WT) protein, in NCI-H1781 cells which endogenously expresses a HER2 mutant protein containing a VC insertion in the kinase domain (HER2VC or G776delinsVC), and in engineered cell lines transduced to express the Her2 mutant protein containing the YVMA insertion (Hek293-HER2YVMA and BEAS2B-HER2YVMA).
(§4) BT474, N87, and NCI-H1781 were plated in 96-well tissue-culture treated plates (Corning Costar, Sigma-Aldrich) in full media and incubated overnight. Hek293-HER2YVMA and BEAS2B-HER2YVMA cells were plated in 96-well poly-D-lysine treated plates (BD Bioscience, San Jose, CA). For treatment with test compounds, the media was replaced with corresponding low serum media (1% FBS) containing test compound at 1.1, 0.37, 0.12, 0.041, 0.014, 0.005, 0.0014, 0.0005 μM or DMSO control (0.1%). Cells were incubated with compound for 1.5 hr at 37° C. After compound treatment, the media was removed and cells were lysed for 30 min on ice in complete MSD lysis buffer (prepared using MSD base lysis buffer (Meso-Scale Discovery) supplemented with cOmplete, EDTA-free Protease inhibitor cocktail (Roche), Phosphatase Inhibitor Cocktails 2 and 3 (Sigma-Aldrich), and 1 mM PMSF (Sigma-Aldrich)). Lysates were stored at −70° C. until further analysis.
(§5) HER2 signaling was evaluated using phospho (Tyr1248)/total ErbB2 whole cell lysate MSD plates (Meso-Scale Discovery, Gaithersburg, MD). The phospho HER2 signal was normalized to total HER2 for each sample; results are reported as % DMSO control. The normalized data was fitted using a sigmoidal curve analysis program (Graph Pad Prism version 6) with variable Hill slope to determine EC50 values.
(§6) The HER2 signaling results are provided in Table 4, under columns titled “BT474-pHER2 EC50”, “N87-pHER2 EC50”, and “NCI-H1781-pHER2 EC50”. Hek293-HER2YVMA ins fall under the heading “HEKYVMA-pHER2 EC50”, Ba/F3 HER2YVMA fall under the heading “Ba/F3 YVMA-pHER2 EC50” and BEAS2B-HER2YVMA fall under the heading “BEAS2B YVMA-pHER2 EC50”.

The target in assay [4] is T2, HER2 wildtype (WT) protein (Homo sapiens, UniProt P04626).
T2 construct: BT474 and N87 cell lines which endogenously overexpress the HER2 wildtype (WT) protein; endogenous in cells; host or cells: BT474, N87
Description: HER2 signaling (pHER2 Tyr1248/total HER2 MSD) in N87 cells. The following applies: 1.5 hr compound, 1% FBS. The assay is classed as cell-based. As to the method:
as §1, §3, §4, §5, §6

In assay [5] the test system is NCI-H1781 cells. Description: Cellular proliferation in NCI-H1781 cells (CellTiter Glo). The assay is classed as cell-based, human. The following applies: 120 h, redosed after 72 h. As to the method:
as §1, §2

[6] abbreviates: Homo sapiens, BT-474, BT474 cells.
[7] abbreviates: Homo sapiens, NCI-H1781, NCI-H1781 cells.

Counter-ions that a name gives are not always drawn. Bounds are passed on as bounds.

T1 sequence (P04626 with tags, fused parts or gaps INS775V/G776C): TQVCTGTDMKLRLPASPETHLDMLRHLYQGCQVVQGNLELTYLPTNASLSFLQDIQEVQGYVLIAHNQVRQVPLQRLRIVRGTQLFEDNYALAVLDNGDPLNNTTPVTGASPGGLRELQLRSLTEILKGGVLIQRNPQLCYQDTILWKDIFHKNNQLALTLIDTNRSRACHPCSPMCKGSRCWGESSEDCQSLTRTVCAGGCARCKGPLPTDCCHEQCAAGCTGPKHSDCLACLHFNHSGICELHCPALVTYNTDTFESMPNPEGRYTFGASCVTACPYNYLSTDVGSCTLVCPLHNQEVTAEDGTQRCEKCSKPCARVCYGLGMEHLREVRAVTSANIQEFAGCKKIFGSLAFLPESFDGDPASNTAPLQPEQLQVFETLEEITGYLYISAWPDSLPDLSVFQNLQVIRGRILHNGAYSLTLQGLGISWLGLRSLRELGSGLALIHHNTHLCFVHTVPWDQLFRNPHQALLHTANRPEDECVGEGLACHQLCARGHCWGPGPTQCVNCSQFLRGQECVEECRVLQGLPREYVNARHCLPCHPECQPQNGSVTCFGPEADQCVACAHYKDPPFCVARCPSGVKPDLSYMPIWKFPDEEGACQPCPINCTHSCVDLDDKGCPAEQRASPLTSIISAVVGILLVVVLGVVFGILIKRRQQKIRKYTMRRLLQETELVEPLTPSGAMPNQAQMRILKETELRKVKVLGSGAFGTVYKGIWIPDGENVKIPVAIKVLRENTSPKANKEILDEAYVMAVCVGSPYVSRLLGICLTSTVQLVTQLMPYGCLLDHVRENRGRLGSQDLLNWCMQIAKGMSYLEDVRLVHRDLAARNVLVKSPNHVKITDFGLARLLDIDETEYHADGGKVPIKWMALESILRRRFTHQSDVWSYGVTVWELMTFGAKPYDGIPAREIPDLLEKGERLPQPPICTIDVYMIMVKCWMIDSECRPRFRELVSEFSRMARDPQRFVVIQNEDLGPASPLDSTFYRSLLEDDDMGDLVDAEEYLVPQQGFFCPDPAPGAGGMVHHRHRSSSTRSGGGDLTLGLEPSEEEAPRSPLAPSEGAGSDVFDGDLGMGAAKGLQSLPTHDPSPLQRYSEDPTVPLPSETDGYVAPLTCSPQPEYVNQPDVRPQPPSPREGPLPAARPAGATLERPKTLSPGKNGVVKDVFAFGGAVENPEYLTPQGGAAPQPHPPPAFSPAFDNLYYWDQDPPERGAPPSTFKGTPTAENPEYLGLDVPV
T2 sequence (P04626 23-1255): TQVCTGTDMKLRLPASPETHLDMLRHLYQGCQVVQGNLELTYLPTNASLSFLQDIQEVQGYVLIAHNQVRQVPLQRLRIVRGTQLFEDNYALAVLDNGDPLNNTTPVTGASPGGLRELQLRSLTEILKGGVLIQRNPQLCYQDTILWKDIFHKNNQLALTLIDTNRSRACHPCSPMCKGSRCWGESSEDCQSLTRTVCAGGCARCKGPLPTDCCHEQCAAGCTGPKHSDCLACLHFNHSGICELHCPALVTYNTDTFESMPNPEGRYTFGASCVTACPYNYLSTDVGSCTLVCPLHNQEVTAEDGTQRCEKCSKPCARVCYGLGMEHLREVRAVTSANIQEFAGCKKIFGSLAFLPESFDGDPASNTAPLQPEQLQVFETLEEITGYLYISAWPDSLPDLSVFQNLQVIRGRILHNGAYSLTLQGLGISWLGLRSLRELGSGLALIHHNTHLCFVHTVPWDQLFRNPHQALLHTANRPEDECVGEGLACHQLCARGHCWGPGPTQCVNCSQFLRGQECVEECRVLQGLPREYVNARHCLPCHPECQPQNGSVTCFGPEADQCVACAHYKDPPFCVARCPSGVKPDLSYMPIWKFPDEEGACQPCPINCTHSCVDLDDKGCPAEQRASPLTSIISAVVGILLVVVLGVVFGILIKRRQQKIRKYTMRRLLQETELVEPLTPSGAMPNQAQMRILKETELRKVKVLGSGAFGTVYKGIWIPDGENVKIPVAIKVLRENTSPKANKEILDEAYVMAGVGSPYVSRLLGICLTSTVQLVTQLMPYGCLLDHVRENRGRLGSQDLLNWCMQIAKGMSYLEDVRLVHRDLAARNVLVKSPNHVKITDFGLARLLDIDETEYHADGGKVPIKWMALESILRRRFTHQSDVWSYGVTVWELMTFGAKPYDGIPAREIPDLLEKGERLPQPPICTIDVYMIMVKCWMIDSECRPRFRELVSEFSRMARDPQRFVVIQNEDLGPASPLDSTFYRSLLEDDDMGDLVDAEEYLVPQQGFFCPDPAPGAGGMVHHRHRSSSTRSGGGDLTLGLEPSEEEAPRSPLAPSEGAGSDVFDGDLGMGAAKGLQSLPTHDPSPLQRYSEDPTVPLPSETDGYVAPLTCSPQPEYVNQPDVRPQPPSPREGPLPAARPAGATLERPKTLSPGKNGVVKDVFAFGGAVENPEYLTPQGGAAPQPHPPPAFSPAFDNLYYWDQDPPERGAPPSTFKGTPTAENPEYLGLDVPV

For `Cc1ccc(Oc2ccc(Nc3ncnc4sc5c(c34)CN(C(=O)C=CCN(C)C)C5C)cc2C)cn1` (single isomer, unassigned) [Compound 169], the 50% growth inhibitory concentration (GI50) in assay [1] (Homo sapiens), in assay [2] (setting [6]) and in assay [5] (NCI-H1781 cells) was under 100 nM throughout. Further, the EC50 in assay [3] and in assay [4] was under 100 nM in each case.
As for `Cc1ccc(Oc2ccc(Nc3ncnc4sc5c(c34)CCN(C(=O)/C=C/CN3CCOCC3)C5)cc2C)cn1` [Compound 17, (E)-1-(4-((3-Methyl-4-((6-methylpyridin-3-yl)oxy)phenyl)amino)-5,6-dihydropyrido[4′,3′:4,5]thieno[2,3-d]pyrimidin-7(8H)-yl)-4-morpholinobut-2-en-1-one], the GI50 in assay [1] (Homo sapiens), in assay [2] (setting [6]) and in assay [5] (setting [7]) was under 100 nM each time. In addition, the concentration for a half-maximal effect (EC50) in assay [3] and in assay [4] was under 100 nM in each case.
Take `COc1ccc(Oc2ccc(Nc3ncnc4sc5c(c34)CN(C(=O)/C=C/CN(C)C)C5)cc2C)cn1` [Compound 128, (E)-4-(dimethylamino)-1-(4-((4-((6-methoxypyridin-3-yl)oxy)-3-methylphenyl)amino)-5,7-dihydro-6H-pyrrolo[3′,4′:4,5]thieno[2,3-d]pyrimidin-6-yl)but-2-en-1-one]: the 50% growth inhibitory concentration (GI50) in assay [1] (Homo sapiens), in assay [2] (setting [6]) and in assay [5] (setting [7]) was under 100 nM in each case. Also, the EC50 in assay [3] is 100 to 350 nM; in assay [4], under 100 nM.
Take `Cc1ccc(Oc2ccc(Nc3ncnc4sc5c(c34)C(C)N(C(=O)C=CCN(C)C)C5)cc2C)cn1` (single isomer, unassigned) [Compound 147]: the GI50 in assay [1] (Homo sapiens), in assay [2] (setting [6]) and in assay [5] (setting [7]) was under 100 nM each time. Moreover, the EC50 in assay [3] and in assay [4] was under 100 nM each time.
For `COc1ccc(Oc2ccc(Nc3ncnc4sc5c(c34)C(C)CN(C(=O)C=CCN(C)C)C5)cc2C)cn1` (single isomer, unassigned) [Compound 160], the 50% growth inhibitory concentration (GI50) in assay [1], in assay [2] (BT474 cells) and in assay [5] (NCI-H1781 cells) was under 100 nM throughout. Besides, the EC50 in assay [3] and in assay [4] was under 100 nM each time.
With `COc1ccc(Oc2ccc(Nc3ncnc4sc5c(c34)C(C)CN(C(=O)C=CCN(C)C)C5)cc2C)cn1` (single isomer, unassigned) [Compound 159], the GI50 in assay [1] (Homo sapiens) is under 100 nM; in assay [2] (setting [6]), under 100 nM; in assay [5] (setting [7]), 100 to 350 nM. For the same compound, the EC50 in assay [3] is 100 to 350 nM; in assay [4], under 100 nM.
Take `Cc1ccc(Oc2ccc(Nc3ncnc4sc5c(c34)C(C)CN(C(=O)C=CCN3CCOCC3)C5)cc2C)cn1` (single isomer, unassigned) [Compound 177]: the EC50 in assay [3] and in assay [4] was under 100 nM throughout.
For `Cc1ccc(Oc2ccc(Nc3ncnc4sc5c(c34)CCN(C(=O)/C=C/CN(C)C)C5)cc2C)cn1` [Compound 8, (E)-4-(Dimethylamino)-1-(4-((3-methyl-4-((6-methylpyridin-3-yl)oxy)phenyl)amino)-5,6-dihydropyrido[4′,3′:4,5]thieno[2,3-d]pyrimidin-7(8H)-yl)but-2-en-1-one], the GI50 was under 100 nM in assay [1] (Homo sapiens); under 100 nM in assay [2] (setting [6]); under 100 nM in assay [5] (Homo sapiens, NCI-H1781 cells). The EC50 in assay [3] and in assay [4] was under 100 nM throughout.
Turning to `Cc1ccc(Oc2ccc(Nc3ncnc4sc5c(c34)CN(C(=O)/C=C/CN(C)C)C5)cc2Cl)cn1` [Compound 129, (E)-1-(4-((3-Chloro-4-((6-methylpyridin-3-yl)oxy)phenyl)amino)-5H-pyrrolo[3′,4′:4,5]thieno[2,3-d]pyrimidin-6(7H)-yl)-4-(dimethylamino)but-2-en-1-one], the GI50 in assay [1] (Homo sapiens), in assay [2] (setting [6]) and in assay [5] (setting [7]) was under 100 nM in each case. Moreover, the EC50 in assay [3] and in assay [4] was under 100 nM in each case.
Take `Cc1ccc(Oc2ccc(Nc3ncnc4sc5c(c34)CCN(C(=O)/C=C/CN3CC4CCC(C4)C3)C5)cc2C)cn1` [Compound 16, (E)-4-(3-azabicyclo[3.2.1]octan-3-yl)-1-(4-((3-methyl-4-((6-methylpyridin-3-yl)oxy)phenyl)amino)-5,8-dihydropyrido[4′,3′:4,5]thieno[2,3-d]pyrimidin-7(6H)-yl)but-2-en-1-one benzenesulfonate salt]: in assay [4], the EC50 is under 100 nM.
As for `Cc1ccc(Oc2ccc(Nc3ncnc4sc5c(c34)CC(C)N(C(=O)C=CCN(C)C)C5C)cc2C)cn1` (single isomer, unassigned) [Compound 161], the half-maximal effective concentration (EC50) in assay [4] was under 100 nM.
Compound `C=CC(=O)N1[C@H](C)Cc2c(sc3ncnc(Nc4ccc(Oc5ccc(C)nc5)c(C)c4)c23)[C@H]1C` (racemic) [Compound 166, 1-(6,8-trans-dimethyl-4-((3-methyl-4-((6-methylpyridin-3-yl)oxy)phenyl)amino)-5,8-dihydropyrido[4′,3′:4,5]thieno[2,3-d]pyrimidin-7(6H)-yl)prop-2-en-1-one] gave an EC50 in assay [4] of under 100 nM.
In assay [4], `Cc1cc(Nc2ncnc3sc4c(c23)CCN(C(=O)/C=C/CN2CCOCC2)C4)ccc1Oc1ccc2ncnn2c1` [Compound 12] returned an EC50 of under 100 nM.

These data come from patent US20240391931A1 (Bristol-Myers Squibb Company, priority 2021, published 2024).
